Where “and” joins values, the source holds several entries; their conditions need not be identical. Equal entries are not always repeated.
Tested on: 636577-100-R-J1-PDC complex spheroid viability
Test: Anticancer human tumor 636577-100-R-J1-PDC patient-derived endometrial adenocarcinoma cell line growth inhibition [GQUAD]
Conditions: for viability, T/C: stronger effect = lower value; active = viability on the fitted dose curve at most 10% of control; inactive = the rest
From the text: DNA G-quadruplex Stabilizer Agents in Combinations in Complex Spheroids
A high-throughput screen of multi-cell type tumor spheroids was designed to identify active combinations of DNA G-quadruplex stabilizer agents and targeted small molecules. Complex spheroids include a stromal component modeled by human endothelial cells (HUVEC) and fibroblasts modeled by human mesenchymal stem cells (MSCs). The concentration ranges selected for each drug and investigational agent were based upon clinically achievable concentrations if the clinical Cmax of the agent was known.
Compounds. The drugs and investigational agents: pidnarulex (CX-5461; NSC782164), APTO-253 (NSC789042), BRACO-19 (NSC847499), peposertib (NSC802822), ceralasertib (NSC780249), elimusertib (NSC800525), camonsertib (NSC841442), AZD-1390 (NSC803789), olaparib (NSC753686), talazoparib (NSC767125), ART-558 (NSC835418), sotorasib (NSC818433), MRTX-1133 (NSC836407), SN-38 (NSC673596), topotecan (NSC609699), etoposide (NSC141540), doxorubicin (NSC123127), gemcitabine (NSC613327), 5-fluorouracil (NSC19893), paclitaxel (NSC125973), vemurafenib (NSC761431), panobinostat (NSC761190), R-306465 (JNJ-16241199; NSC773264), adavosertib (NSC754352), TP-3654 (NSC805149), carboplatin (NSC241240), KSQ-4279 (NSC840948), and staurosporine (NSC755774) were obtained from the National Cancer Institute (NCI) Developmental Therapeutics Program Chemical Repository (34). The FDA-approved anticancer drug set is available from the NCI Developmental Therapeutics Program. […] The stock solutions were prepared in dimethyl sulfoxide (DMSO, Sigma-Aldrich, St. Louis, MO, cat. D2650) at 800-fold the tested concentration and stored at -70 degrees C prior to their use. All drugs and investigational agents were tested over a range starting from a high concentration at or near the clinical Cmax and decreasing in half-log increments. If the clinical Cmax for an agent had not been determined, the highest concentration tested was 10 microM.
2.3 Cell Culture. All cells were maintained in an incubator at 37 degrees C and 5% CO2 with 95% humidity. The PDC lines were cultured according to standard operating procedures established by the NCI PDMR. All PDCs were thawed and cultured in Matrigel-coated flasks prepared with a working solution of 1X Ham's F-12 nutrient mix, without supplementation (Invitrogen, cat. 11765054), 100 U/mL penicillin-streptomycin (Invitrogen, cat. 15140122), and 2.5% Matrigel (Corning Inc., cat. 354248) for the first three passages. The 857933-349-R-J2-PDC line was cultured in 6C/Colon 1B media, which includes advanced DMEM/F-12 (Thermo Fisher Scientific, cat. 12634028), 10 mM HEPES (Thermo Fisher Scientific, cat. 15630080), 1X GlutaMAX supplement (Thermo Fisher Scientific, cat. 35050061), 0.1 mg/mL primocin (InvivoGen, cat. ant-pm-2), 10% defined fetal bovine serum, heat inactivated (HyClone Laboratories Inc., cat. SH30070.03HI), 50% L-WRN conditioned media (ATCC, cat. CRL-3276), 1.25 mM N-Acetyl-L-cysteine (Sigma-Aldrich, cat. A9165), 10 mM nicotinamide (Sigma-Aldrich, cat. N0636), 1X B-27 supplement (Thermo Fisher Scientific, cat. 17504044), 1X N-2 supplement (Thermo Fisher Scientific, cat. 17502048), 10 microM Y-27632 dihydrochloride (Tocris Bioscience, cat. 1254), and 50 ng/mL human EGF recombinant protein (Thermo Fisher Scientific, cat. PHG0311). The 485176-168-R4-J1-PDC line was cultured in Panc media, which includes all 6C/Colon 1B media components plus 100 ng/mL human FGF-10 (Thermo Fisher Scientific, cat. 100-26), 500 nM SB-431542 (Selleckchem, cat. S1067), and gastrin (Tocris, cat. 3006).
[…]
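Note: viability read after seven days of drug exposure.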
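Throughout, for viability, T/C: luminescence signal used as a proxy for viable cells; 100% = DMSO vehicle control wells.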

CC(C)n1c(=O)n(C)c2cnc3cc(F)c(-c4ccc(OCCCN5CCCCC5)nc4)cc3c21
> 10000 nM and 9660 nM: IC50 (curve of compound)
inactive: viability, T/C (compound 0.0316 µM) 72.8% and 108% | viability, T/C (compound 0.1 µM) 97.3% and 87.1% | viability, T/C (compound 0.316 µM) 90.1% and 107% | viability, T/C (compound 1 µM) 56.6% and 102% | viability, T/C (compound 3.16 µM) 57.8% and 80.4% | viability, T/C (compound 10 µM) 53.7% and 49%

CN(C)c1ccc(Nc2c3ccc(NC(=O)CCN4CCCC4)cc3nc3cc(NC(=O)CCN4CCCC4)ccc23)cc1
active: viability, T/C (compound 10 µM) 6.05% [middle of 12 runs]
inactive: viability, T/C (compound 0.0316 µM) 104% [middle of 12 runs] | viability, T/C (compound 1 µM) 82.9% [middle of 12 runs] | viability, T/C (compound 3.16 µM) 40.7% [middle of 12 runs]
2.41 µM [middle of 11 runs]: IC50 (compound alone, run of 03/26/2024)

CCc1c2c(nc3ccc(O)cc13)-c1cc3c(c(=O)n1C2)COC(=O)[C@]3(O)CC
inactive: viability, T/C (compound 0.000999 µM) 46.6% | viability, T/C (compound 0.00316 µM) 22.1% | viability, T/C (compound 0.00999 µM) 23.3% | viability, T/C (compound 0.0316 µM) 22.9% | viability, T/C (compound 0.0999 µM) 19.6% | viability, T/C (compound 0.316 µM) 10.7%
< 0.999 nM: IC50 (curve of compound)

C=CCn1c(=O)c2cnc(Nc3ccc(N4CCN(C)CC4)cc3)nc2n1-c1cccc(C(C)(C)O)n1 + Cc1cnc(CNC(=O)c2c(=O)c3ccc(N4CCCN(C)CC4)nc3n3c2sc2ccccc23)cn1
inactive: viability, T/C (second compound 0.0316 µM, first compound 0.0316 µM) 49.8% | viability, T/C (second compound 0.0316 µM, first compound 0.1 µM) 40.3% | viability, T/C (second compound 0.0316 µM, first compound 0.316 µM) 47.3% | viability, T/C (second compound 0.0316 µM, first compound 1 µM) 28.2% | viability, T/C (second compound 0.0316 µM, first compound 3.16 µM) 22.4% | viability, T/C (second compound 0.0316 µM, first compound 10 µM) 12.1% | viability, T/C (second compound 0.1 µM, first compound 0.0316 µM) 29.4% | viability, T/C (second compound 0.1 µM, first compound 0.1 µM) 29% | viability, T/C (second compound 0.1 µM, first compound 0.316 µM) 28.7% | viability, T/C (second compound 0.1 µM, first compound 1 µM) 22.3% | viability, T/C (second compound 0.1 µM, first compound 3.16 µM) 21.3% | viability, T/C (second compound 0.1 µM, first compound 10 µM) 14.2% | viability, T/C (second compound 0.316 µM, first compound 0.0316 µM) 27.4% | viability, T/C (second compound 0.316 µM, first compound 0.1 µM) 26.2% | viability, T/C (second compound 0.316 µM, first compound 0.316 µM) 28.2% | viability, T/C (second compound 0.316 µM, first compound 1 µM) 24.2% | viability, T/C (second compound 0.316 µM, first compound 3.16 µM) 24.8% | viability, T/C (second compound 0.316 µM, first compound 10 µM) 15.1% | viability, T/C (second compound 1 µM, first compound 0.0316 µM) 19.4% | viability, T/C (second compound 1 µM, first compound 0.1 µM) 19.5% | viability, T/C (second compound 1 µM, first compound 0.316 µM) 22.5% | viability, T/C (second compound 1 µM, first compound 1 µM) 24.5% | viability, T/C (second compound 1 µM, first compound 3.16 µM) 23.4% | viability, T/C (second compound 1 µM, first compound 10 µM) 14.3% | viability, T/C (second compound 3.16 µM, first compound 0.0316 µM) 18.1% | viability, T/C (second compound 3.16 µM, first compound 0.1 µM) 22.3% | viability, T/C (second compound 3.16 µM, first compound 0.316 µM) 25.9% | viability, T/C (second compound 3.16 µM, first compound 1 µM) 23.7% | viability, T/C (second compound 3.16 µM, first compound 3.16 µM) 21.1% | viability, T/C (second compound 3.16 µM, first compound 10 µM) 18.4% | viability, T/C (second compound 10 µM, first compound 0.0316 µM) 23% | viability, T/C (second compound 10 µM, first compound 0.1 µM) 22.2% | viability, T/C (second compound 10 µM, first compound 0.316 µM) 24.2% | viability, T/C (second compound 10 µM, first compound 1 µM) 19.1% | viability, T/C (second compound 10 µM, first compound 3.16 µM) 25.2% | viability, T/C (second compound 10 µM, first compound 10 µM) 23.1%
< 31.6 nM: IC50 (curve of first compound, second compound 0.0316 µM) | IC50 (curve of first compound, second compound 0.1 µM) | IC50 (curve of first compound, second compound 0.316 µM) | IC50 (curve of first compound, second compound 1 µM) | IC50 (curve of first compound, second compound 3.16 µM) | IC50 (curve of first compound, second compound 10 µM)

C=CC(=O)N1CCN(c2nc(=O)n(-c3c(C)ccnc3C(C)C)c3nc(-c4c(O)cccc4F)c(F)cc23)C(C)C1 (configuration not stated)
> 10000 nM: IC50 (curve of compound)
inactive: viability, T/C (compound 0.0316 µM) 103% and 110% | viability, T/C (compound 0.1 µM) 55.1% and 117% | viability, T/C (compound 0.316 µM) 105% | viability, T/C (compound 1 µM) 107% and 90.3% | viability, T/C (compound 3.16 µM) 72.6% and 85.3% | viability, T/C (compound 10 µM) 70.6% and 66.2%

CC1COCCN1c1cc(C2(S(C)(=N)=O)CC2)nc(-c2ccnc3[nH]ccc23)n1 (configuration not stated)
inactive: viability, T/C (compound 0.0316 µM) 90.3% and 97.2% and 58.2% | viability, T/C (compound 0.1 µM) 91.5% and 90.5% and 90.6% | viability, T/C (compound 0.316 µM) 93% and 90.3% and 73.6% | viability, T/C (compound 1 µM) 50.8% and 49.6% and 41.9% | viability, T/C (compound 3.16 µM) 22.6% and 22.4% and 54.3% | viability, T/C (compound 10 µM) 14.2% and 12.7% and 14.7%
1040 nM and 2200 nM: IC50 (curve of compound)

C#Cc1c(F)ccc2cc(O)cc(-c3ncc4c(N5CC6CCC(C5)N6)nc(OCC56CCCN5CC(F)C6)nc4c3F)c12 (configuration not stated)
> 10000 nM and 4970 nM and 5760 nM: IC50 (curve of compound)
inactive: viability, T/C (compound 0.0316 µM) 99.5% and 96.3% and 104% | viability, T/C (compound 0.1 µM) 88.7% and 68.7% and 103% | viability, T/C (compound 0.316 µM) 77.1% and 102% and 113% | viability, T/C (compound 1 µM) 83% and 87.9% and 71.9% | viability, T/C (compound 3.16 µM) 66.9% and 56.5% and 70.4% | viability, T/C (compound 10 µM) 49.2% and 39.9% and 35.7%

From PubChem BioAssay AID2060504 (Molecular Pharmacology Branch, DTP, NCI, 2025)
